Data: PubChem BioAssay AID2060627 (Molecular Pharmacology Branch, DTP, NCI, 2025)

Test system: 156681-154-R-J1-PDC complex spheroid viability
Assay: Anticancer human tumor 156681-154-R-J1-PDC patient-derived melanoma cell line growth inhibition [CLK]
Conditions: for IC50: curve of first compound; for viability, T/C: stronger effect = lower value; active = viability on the fitted dose curve at most 10% of control; inactive = the rest
Text: A high-throughput screen of multi-cell type tumor spheroids was designed to identify active combinations of […] and targeted small molecules. Complex spheroids include a stromal component modeled by human endothelial cells (HUVEC) and fibroblasts modeled by human mesenchymal stem cells (MSCs). The concentration ranges selected for each drug and investigational agent were based upon clinically achievable concentrations if the clinical Cmax of the agent was known.
Compounds. The drugs and investigational agents: cirtuvivint (SM08502; NSC835563), CC-671 (NSC850746), vemurafenib (NSC761431), tapotoclax (NSC804041), sotorasib (NSC818433), adagrasib (NSC831453), MRTX-1133 (NSC836407), BAY2416964 (NSC825713), copanlisib (NSC816437), inavolisib (NSC800729), abemaciclib (NSC768073), osimertinib (NSC779217), entinostat (NSC756642), eltanexor (KPT-8602, NSC794443), venetoclax (NSC766270), ceralasertib (NSC777638), bortezomib (NSC756655), olaparib (NSC753686), talazoparib (NSC767125), alisertib (NSC759677), peposertib (NSC802822), gemcitabine (NSC613327), 5-fluorouracil (NSC19893), SN-38 (NSC673596), oxaliplatin (NSC266046), paclitaxel (NSC125973), and doxorubicin (NSC123127), were obtained from the National Cancer Institute (NCI) Developmental Therapeutics Program Chemical Repository. The FDA-approved anticancer drug set is available from the Developmental Therapeutics Program at https://dtp.cancer.gov/organization/dscb/obtaining/available plates.htm. […] The stock solutions were prepared in dimethyl sulfoxide (DMSO, Sigma-Aldrich, St. Louis, MO, cat. D2650), except for the platinum complexes which were prepared in saline (Quality Biological, Gaithersburg, MD, cat. 114-055-101), at 800-fold the tested concentration and stored at -70 degrees C prior to their use. All drugs and investigational agents were tested over a range starting from a high concentration at or near the clinical Cmax and decreasing in half-log increments. If the clinical Cmax for an agent had not been determined, the highest concentration tested was 10 microM.
Cell Culture. All cells were maintained in an incubator at 37 degrees C and 5% CO2 with 95% humidity. The PDC lines were cultured according to standard operating procedures established by the NCI PDMR. Briefly, all PDCs were thawed and cultured in Matrigel-coated flasks prepared with a working solution of 1X Ham's F-12 nutrient mix, without supplementation (Invitrogen, Waltham, MA, cat. 11765054), 100 U/mL penicillin-streptomycin (Invitrogen, cat. 15140122), and 2.5% Matrigel (Corning Inc., Corning, NY, cat. 354248) for the first three passages. The 947758-054-R-J2-PDC line was cultured in 6B/Colon 1A media, which includes advanced DMEM/F-12 (Thermo Fisher Scientific, cat. 12634028), 10 mM HEPES (Thermo Fisher Scientific, cat. 15630080), 1X GlutaMAX supplement (Thermo Fisher Scientific, cat. 35050061), 0.1 mg/mL primocin (InvivoGen, cat. ant-pm-2), 10% defined fetal bovine serum, heat inactivated (HyClone Laboratories Inc., cat. SH30070.03HI), 1.25 mM N-Acetyl-L-cysteine (Sigma-Aldrich, cat. A9165), 10 mM nicotinamide (Sigma-Aldrich, cat. N0636), 1X B-27 supplement (Thermo Fisher Scientific, cat. 17504044), 1X N-2 supplement (Thermo Fisher Scientific, cat. 17502048), and 10 microM Y-27632 dihydrochloride (Tocris Bioscience, cat. 1254). The 876862-298-R-J1-PDC was cultured in 6E media, which includes all 6B/Colon 1A media components plus 50% L-WRN conditioned media (ATCC, cat. CRL-3276), 50 ng/mL recombinant human EGF recombinant protein (hEGF; Thermo Fisher Scientific, cat. PHG0311), 10 ng/mL recombinant human fibroblast growth factor 10 (hGFG-10; PeproTech, cat. 100-26), 1 ng/mL recombinant human fibroblast growth factor 2 (hFGF-2; PeproTech, cat. 100-18B), and 1 µM prostaglandin E2 (PGE2; Tocris, cat. 2296). The 227483-062-R1-J1-PDC line was cultured in Panc media, containing all 6E components except hFGF-2, with the addition of 500 nM SB-431542 (Selleckchem, cat. S1067) and 10 nM gastrin (Tocris, cat. 3006). […]

[1] = second compound 0.0316 µM, first compound 0.0316 µM
[2] = second compound 0.0316 µM, first compound 0.1 µM
[3] = second compound 0.0316 µM, first compound 0.316 µM
[4] = second compound 0.0316 µM, first compound 1 µM
[5] = second compound 0.0316 µM, first compound 3.16 µM
[6] = second compound 0.0316 µM, first compound 10 µM
[7] = second compound 0.1 µM, first compound 0.0316 µM
[8] = second compound 0.1 µM, first compound 0.1 µM
[9] = second compound 0.1 µM, first compound 0.316 µM
[10] = second compound 0.1 µM, first compound 1 µM
[11] = second compound 0.1 µM, first compound 3.16 µM
[12] = second compound 0.1 µM, first compound 10 µM
[13] = second compound 0.316 µM, first compound 0.0316 µM
[14] = second compound 0.316 µM, first compound 0.1 µM
[15] = second compound 0.316 µM, first compound 0.316 µM
[16] = second compound 0.316 µM, first compound 1 µM
[17] = second compound 0.316 µM, first compound 3.16 µM
[18] = second compound 0.316 µM, first compound 10 µM
[19] = second compound 1 µM, first compound 0.0316 µM
[20] = second compound 1 µM, first compound 0.1 µM
[21] = second compound 1 µM, first compound 0.316 µM
[22] = second compound 1 µM, first compound 1 µM
[23] = second compound 1 µM, first compound 3.16 µM
[24] = second compound 1 µM, first compound 10 µM
[25] = second compound 3.16 µM, first compound 0.0316 µM
[26] = second compound 3.16 µM, first compound 0.1 µM
[27] = second compound 3.16 µM, first compound 0.316 µM
[28] = second compound 3.16 µM, first compound 1 µM
[29] = second compound 3.16 µM, first compound 3.16 µM
[30] = second compound 3.16 µM, first compound 10 µM
[31] = second compound 10 µM, first compound 0.0316 µM
[32] = second compound 10 µM, first compound 0.1 µM
[33] = second compound 10 µM, first compound 0.316 µM
[34] = second compound 10 µM, first compound 1 µM
[35] = second compound 10 µM, first compound 3.16 µM
[36] = second compound 10 µM, first compound 10 µM
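Also: spheroids exposed to the agents for seven days.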

CCCS(=O)(=O)Nc1ccc(F)c(C(=O)c2c[nH]c3ncc(-c4ccc(Cl)cc4)cc23)c1F + CN1CCN(c2cc(C(=O)Nc3cc4cc(-c5cnn(C)c5)ccc4cn3)ccn2)CC1
< 0.0316 µM: IC50 (second compound 0.316 µM) | IC50 (second compound 1 µM) | IC50 (second compound 3.16 µM) | IC50 (second compound 10 µM)
active: viability, T/C [19] 0.19% | viability, T/C [20] 0.44% | viability, T/C [21] 0.19% | viability, T/C [22] 0.14% | viability, T/C [23] 0.12% | viability, T/C [24] 0.13% | viability, T/C [25] 0.3% | viability, T/C [26] 0.48% | viability, T/C [27] 0.11% | viability, T/C [28] 0.27% | viability, T/C [29] 3.96% | viability, T/C [30] 0.11% | viability, T/C [31] 0.13% | viability, T/C [32] 1.59% | viability, T/C [33] 0.27% | viability, T/C [34] 0.21% | viability, T/C [35] 3.86% | viability, T/C [36] 0.17%
4.96 µM: IC50 (second compound 0.1 µM)
6.05 µM: IC50 (second compound 0.0316 µM)
inactive: viability, T/C [1] 95.2% | viability, T/C [2] 88.7% | viability, T/C [3] 104% | viability, T/C [4] 94.7% | viability, T/C [5] 99.7% | viability, T/C [6] 13.9% | viability, T/C [7] 88.3% | viability, T/C [8] 80.8% | viability, T/C [9] 76.7% | viability, T/C [10] 85% | viability, T/C [11] 74.8% | viability, T/C [12] 11.3% | viability, T/C [13] 25.4% | viability, T/C [14] 19.6% | viability, T/C [15] 28.6% | viability, T/C [16] 29.9% | viability, T/C [17] 24.9% | viability, T/C [18] 3.74%

COC1C=CCC(C)C(C)S(=O)(=O)NC(=O)c2ccc3c(c2)N(CC2CCC21)CC1(CCCc2cc(Cl)ccc21)CO3 (centres undefined) + CN1CCN(c2cc(C(=O)Nc3cc4cc(-c5cnn(C)c5)ccc4cn3)ccn2)CC1
1.17 µM: IC50 (second compound 0.1 µM)
1.6 µM: IC50 (second compound 0.0316 µM)
< 0.0316 µM: IC50 (second compound 0.316 µM) | IC50 (second compound 1 µM) | IC50 (second compound 3.16 µM) | IC50 (second compound 10 µM)
inactive: viability, T/C [1] 111% | viability, T/C [2] 83.4% | viability, T/C [3] 86.8% | viability, T/C [4] 75.4% | viability, T/C [5] 13.8% | viability, T/C [7] 90.1% | viability, T/C [8] 97.8% | viability, T/C [9] 81.2% | viability, T/C [10] 58% | viability, T/C [11] 11.7% | viability, T/C [13] 27.3% | viability, T/C [14] 17.2% | viability, T/C [15] 16.7%
active: viability, T/C [6] 1.82% | viability, T/C [12] 2.71% | viability, T/C [16] 10.2% | viability, T/C [17] 4.46% | viability, T/C [18] 1.8% | viability, T/C [19] 0.2% | viability, T/C [20] 0.34% | viability, T/C [21] 0.18% | viability, T/C [22] 0.14% | viability, T/C [23] 0.12% | viability, T/C [24] 2.25% | viability, T/C [25] 0.14% | viability, T/C [26] 2.92% | viability, T/C [27] 1.77% | viability, T/C [28] 0.13% | viability, T/C [29] 2.33% | viability, T/C [30] 1.15% | viability, T/C [31] 0.16% | viability, T/C [32] 0.14% | viability, T/C [33] 0.26% | viability, T/C [34] 0.22% | viability, T/C [35] 0.29% | viability, T/C [36] 0.25%
